Measurements published in PubChem BioAssay (NCI).
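Protocol summary: plate cells (96-well), add compound at 5 concentrations, incubate 48 h, interpolate endpoints linearly. GI50 = concentration required for 50% inhibition of growth. TGI is the concentration that stops growth completely.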

Experiments:
Test in all cases: NCI anticancer screen, dose series, 48 h
ACHN renal = test system: ACHN renal
HL-60(TB) leukemia = test system: HL-60(TB) leukemia
KM12 colon = test system: KM12 colon
MCF7 breast = test system: MCF7 breast
RPMI-8226 leukemia = test system: RPMI-8226 leukemia
RXF 393 renal = test system: RXF 393 renal
SF-295 CNS = test system: SF-295 CNS
SR leukemia = test system: SR leukemia
T-47D breast = test system: T-47D breast
TK-10 renal = test system: TK-10 renal

SMILES	GI50 (ACHN renal) [µM]	TGI (ACHN renal) [µM]	GI50 (HL-60(TB) leukemia) [µM]	TGI (HL-60(TB) leukemia) [µM]	GI50 (KM12 colon) [µM]	TGI (KM12 colon) [µM]	TGI (MCF7 breast) [µM]	GI50 (RPMI-8226 leukemia) [µM]	TGI (RPMI-8226 leukemia) [µM]	GI50 (RXF 393 renal) [µM]	TGI (RXF 393 renal) [µM]	GI50 (SF-295 CNS) [µM]	TGI (SF-295 CNS) [µM]	GI50 (SR leukemia) [µM]	TGI (SR leukemia) [µM]	GI50 (T-47D breast) [µM]	TGI (T-47D breast) [µM]	GI50 (TK-10 renal) [µM]	TGI (TK-10 renal) [µM]	GI50 (MCF7 breast) [µM]
CC(F)(F)c1cc(F)ccc1-c1sc2cc(O)ccc2c1Oc1ccc(/C=C/C(=O)O)cc1	10.3	45.5	4.44	23.8	4.72	18.4	15.2	8.33	74.8	2.89	14.5	5.23	20.5	3.66	> 100	7.1	50	22	> 100	–
O=C(NCCCNC(=O)OCc1ccc2c(Br)cc(Br)c(O)c2n1)OCc1ccc2c(Br)cc(Br)c(O)c2n1	> 100	> 100	> 100	> 100	> 100	> 100	> 100	> 100	> 100	> 100	> 100	> 100	> 100	> 100	> 100	> 100	> 100	> 100	> 100	> 100
CCOC(=O)N1C/C(=C/c2ccc(OC)cc2)C(=O)/C(=C/c2ccc(OC)cc2)C1	1.96	5.18	3.02	> 25.4	0.946	2.5	3.2	0.211	1.6	1.56	3.09	2.17	5.81	0.579	> 32.7	3.79	> 100	2.91	8.58	0.363
COc1cc(OC)c(OC)cc1/C=C1\C=Cc2ccccc21	–	> 100	–	35.2	–	41.8	> 100	–	> 100	–	49.7	–	57.6	–	> 100	–	> 100	–	80	–
Cc1ccccc1-n1c(/C=C\c2ccccn2)nc2ccccc2c1=O	12.8	> 100	6.12	> 100	11.1	27.9	58.7	2.51	15	4.33	20	6.76	47.3	3.05	20.4	5.99	64.8	32.6	> 100	10.1
COc1ccccc1CNC(=O)C1c2ccccc2C(=O)N(CC(C)C)C1c1cccs1 (centres undefined)	24.8	90.3	20.5	60.9	24.8	> 100	> 100	13.9	45.2	17.3	48	15.6	67.8	13.5	74.7	20.2	89.8	26.3	66.9	27.2
c1ccc2cc(OCC3CO3)c(OCC3CO3)cc2c1 (centres undefined)	–	6.05	–	45.3	–	26.7	10.1	–	9.8	–	1.47	–	8.59	–	2.15	–	45.4	–	49.2	–
COC(=O)c1c2c(c(C)[n+]([O-])c1C)C(=O)C(NCc1cccc(OC)c1)=CC2=O	2.84	10.2	1.78	5.39	2.48	11.6	3.63	2.93	15.9	2.58	5.2	2.05	6.13	2.36	> 100	2.23	5.47	4.55	22.7	1.65
CCCCCCCCCCCCOC1C(C(COC2OC(C(O)CN3CCCCC3)C3OC(C)(C)OC23)NC(=O)Nc2ccccc2)OC2OC(C)(C)OC21 (centres undefined)	17.3	34.5	3.96	11.3	7.06	18.7	10.6	5.32	15.3	6.03	26.1	15.3	31.7	1.91	4.3	14.5	37.8	10.2	26	3.16
O=C(O)c1ccc(S(=O)(=O)N=Nc2c(O)[nH]c3ccccc23)cc1	–	> 100	–	> 100	–	> 100	> 100	–	> 100	–	> 100	–	> 100	–	> 100	–	> 100	–	> 100	–
CC1CCCN(CC(O)CN2CCCc3ccccc32)C1 (centres undefined)	–	> 100	–	46.6	–	> 100	> 100	–	> 100	–	> 100	–	> 100	–	> 100	–	> 100	–	> 100	–
O=C(O)c1ccc(-c2ccc(C(=O)O)cc2I)c(I)c1	> 100	> 100	> 100	> 100	> 100	> 100	> 100	> 100	> 100	> 100	> 100	> 100	> 100	> 100	> 100	> 100	> 100	> 100	> 100	> 100
Cc1c2ncccc2nc2[nH]c3ccc(OCCN(C)C)cc3c12	0.75	7.95	3.53	16.5	1.93	13.6	6.04	2.13	5.91	2.89	9.92	1.59	13	0.734	7.95	2.8	> 100	2.42	9.55	0.305
COc1ccc(NC(=O)c2sc3nc(C)c(C(O)c4ccc(OC)cc4)cc3c2N)cc1 (centres undefined)	2.51	> 50	1.23	> 50	0.76	> 50	> 50	1.62	> 50	0.411	2.99	0.299	9.79	0.256	> 50	10.5	> 50	17.1	> 50	0.196
BrC(Br)(Br)c1cnc2ccccc2n1	1.41	2.84	1.97	4.16	2.37	7.7	5.42	2.18	6.02	1.06	2.4	3.75	15.4	1.79	5.81	1.33	3.31	1.55	3.02	1.53
CCn1c(-c2nonc2N)nc2c(C#CC(C)(C)O)nc(O[C@@H](CN)c3ccccc3)cc21	0.689	4.73	0.0891	0.371	0.0578	1.51	2.58	0.645	2.7	0.0338	0.394	0.0333	1	0.099	3.59	0.016	2.34	0.164	1.66	0.055
O=C(NCCN1CCOCC1)Nc1ccc(-c2cc3c(Nc4ccc(Oc5cccc(C(F)(F)F)c5)c(Cl)c4)ncnc3s2)cc1	1.74	6.06	1.26	3.37	1.02	2.12	3.27	1.4	3.54	0.653	2.55	0.936	2	1.47	27.6	1.07	3.21	2.78	9.08	1.11
O=C(Nc1cccc2cccnc12)c1ccc(N2C(=O)[C@@H]3[C@H](C2=O)[C@@H]2C=C[C@H]3C2)cc1	36.4	> 100	21	59	30.9	> 100	> 100	23.2	> 88.2	30.8	> 100	24.9	> 86.9	30	> 100	20.2	> 79.3	4.13	> 100	25.1
CS(=O)c1ccc(-c2nc(-c3ccc(F)cc3)c(-c3ccncc3)[nH]2)cc1 (centres undefined)	21.4	> 100	23	53.1	35.9	> 100	> 100	26.2	83.6	15.7	39.3	29.1	> 71.6	16.4	> 77	18	> 100	24.3	> 78.1	33.6
CCCCN(CCCC)CC(C)(C)C(O)c1ccc(OC)c2ccccc12 (centres undefined)	3.96	16	2.98	15.8	3.31	16.5	15.4	2.5	5.93	1.5	4.51	2.28	17.8	2.89	8.34	3.77	17	8.02	24.3	3.55
